Data taken from patent US20200055839A1 (priority 2017, published 2020).

The compounds below were run on NL-RLuc virus (assay: Inhibition of HIV replication (NL-RLuc virus, luciferase readout in MT-2 cells)). Settings: Human immunodeficiency virus 1, MT2, 120 h, MT-2 cells infected with NL-RLuc virus, 5 days of incubation, 10% FBS, at least 2 experiments.
Type: cell-based
How it was run: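 EC50 derived via median effect equation from at least 2 experiments, using luciferase expression as virus-growth readout. Replication-competent NL-RLuc reporter virus (nef partly replaced by Renilla luciferase) infected MT-2 cells with serial compound dilutions; 5-day incubation in RPMI 1640 plus 10% FBS.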

Compound | EC50 [nM]
Cc1nc(C#N)c(-c2ccc(CN(C)c3ncnc4c3oc3ccccc34)cc2)c(N2CCC(C)(C)CC2)c1[C@H](OC(C)(C)C)C(=O)O [Example 22, (2S)-2-(tert-Butoxy)-2-[6-cyano-4-(4,4-dimethylpiperidin-1-yl)-2-methyl-5-(4-{[methyl({8-oxa-3,5-diazatricyclo[7.4.0.0^2,7]trideca-1 (9), 2(7), 3,5,10, 12-hexaen-6-yl})amino]methyl}phenyl)pyridin-3-yl]acetic acid] | 3
Cc1cc(OCC(C)C)ncc1-c1cnc(C)c([C@H](OC(C)(C)C)C(=O)O)c1N1CCC(C)(C)CC1 [Example 429, (2S)-2-tert-Butoxy-2-(4-(4,4-dimethylpiperidin-1-yl)-6′-isobutoxy-4′,6-dimethyl-3, 3′-bipyridin-5-yl)acetic acid] | 219
Cc1cn(-c2nc(C)c([C@H](OC(C)(C)C)C(=O)O)c(N3CCC(C)(C)CC3)c2-c2ccc(OCCc3ccc(F)cc3)cc2)cn1 (single isomer, unassigned) [Example 56] | 2
Cc1cc(-c2cnc(C)c([C@H](OC(C)(C)C)C(=O)O)c2N2CCC(C)(C)CC2)cnc1OCCc1ccc(F)cc1 [Example 253, (S)-2-(tert-Butoxy)-2-(4-(4,4-dimethylpiperidin-1-yl)-6′-(4-fluorophenethoxy)-5′,6-dimethyl-[3,3′-bipyridin]-5-yl)acetic acid] | 1
Cc1nc(Nc2ccnc(C(=O)O)c2)c(-c2ccc(OCCc3ccc(F)cc3)cc2)c(N2CCC(C)(C)CC2)c1[C@H](OC(C)(C)C)C(=O)O [Example 102, (S)-4-((5-(tert-Butoxy(carboxy)methyl)-4-(4,4-dimethylpiperidin-1-yl)-3-(4-(4-fluorophenethoxy)phenyl)-6-methylpyridin-2-yl)amino)picolinic acid] | 50
Cc1nc(Nc2ccc(C#N)cn2)c(-c2ccc(OCCc3ccc(F)cc3)cc2)c(N2CCC(C)(C)CC2)c1[C@H](OC(C)(C)C)C(=O)O [Example 109, (S)-2-(tert-Butoxy)-2-(6-((5-cyanopyridin-2-yl)amino)-4-(4,4-dimethylpiperidin-1-yl)-5-(4-(4-fluorophenethoxy)phenyl)-2-methylpyridin-3-yl)acetic acid] | 13
CC1(C)CCN(c2c(-c3ccc(OCCc4ccc(F)cc4)cn3)cnc(CO)c2[C@H](OC(C)(C)C)C(=O)O)CC1 [Example 269, (S)-2-(tert-Butoxy)-2-(4′-(4,4-dimethylpiperidin-1-yl)-5-(4-fluorophenethoxy)-6′-(hydroxymethyl)-[2, 3′-bipyridin]-5′-yl)acetic acid] | 9
Cc1ncc(-c2cnc(OCCC(C)C)c(F)c2)c(N2CCC(C)(C)CC2)c1[C@H](OC(C)(C)C)C(=O)O [Example 368, (2S)-2-(tert-butoxy)-2-[4-(4,4-dimethylpiperidin-1-yl)-5′-fluoro-6-methyl-6′-(3-methylbutoxy)-[3,3′-bipyridine]-5-yl]acetic acid] | 1
Cc1nc(NCCCC2CCCCC2)c(-c2ccc(OCCc3ccc(F)cc3)cc2)c(N2CCC(C)(C)CC2)c1[C@H](OC(C)(C)C)C(=O)O [Example 91, (S)-2-(tert-Butoxy)-2-(6-((3-cyclohexylpropyl)amino)-4-(4,4-dimethylpiperidin-1-yl)-5-(4-(4-fluorophenethoxy)phenyl)-2-methylpyridin-3-yl)acetic acid] | 72
CCC(C)COc1ccc(-c2cnc(C)c([C@H](OC(C)(C)C)C(=O)O)c2N2CCC(C)(C)CC2)nc1 (stereo partly drawn) [Example 360, (2S)-2-(tert-butoxy)-2-[4′-(4,4-dimethylpiperidin-1-yl)-6′-methyl-5-(2-methylbutoxy)-[2,3′-bipyridine]-5′-yl]acetic acid] | 0.8
CC1(C)CCN(c2c(-c3ccc(OCCc4ccc(F)cc4)cn3)cnc(Cl)c2[C@H](OC(C)(C)C)C(=O)O)CC1 [Example 225, (2S)-2-(tert-Butoxy)-2-[6′-chloro-4′-(4,4-dimethylpiperidin-1-yl)-5-[2-(4-fluorophenyl)ethoxy]-[2, 3′-bipyridine]-5′-yl]acetic acid] | 1
Cc1ncc(-c2ccc(OCCc3ccccc3)cn2)c(N2CCC(C)(C)CC2)c1[C@H](OC(C)(C)C)C(=O)O [Example 285, (S)-2-(tert-Butoxy)-2-(4′-(4,4-dimethylpiperidin-1-yl)-6′-methyl-5-phenethoxy-[2, 3′-bipyridin]-5′-yl)acetic acid] | 0.6
Cc1nc(NCC2CCN(C)CC2)c(-c2ccc(OCCc3ccc(F)cc3)cc2)c(N2CCC(C)(C)CC2)c1[C@H](OC(C)(C)C)C(=O)O [Example 42, (S)-2-(tert-Butoxy)-2-(4-(4,4-dimethylpiperidin-1-yl)-5-(4-(4-fluorophenethoxy)phenyl)-2-methyl-6-(((1-methylpiperidin-4-yl)methyl)amino)pyridin-3-yl)acetic acid] | 3
COc1c(F)ccc(-c2cnc(C)c([C@H](OC(C)(C)C)C(=O)O)c2N2CCC(C)(C)CC2)c1F [Example 171, (2S)-2-(tert-Butoxy)-2-[5-(2,4-difluoro-3-methoxyphenyl)-4-(4,4-dimethylpiperidin-1-yl)-2-methylpyridin-3-yl]acetic acid] | 5
Cc1ncc(-c2cnc(OCCc3ccc(Cl)cc3)c(F)c2)c(N2CCC(C)(C)CC2)c1[C@H](OC(C)(C)C)C(=O)O [Example 395, (2S)-2-(tert-butoxy)-2-{6′-[2-(4-chlorophenyl)ethoxy]-4-(4,4-dimethylpiperidin-1-yl)-5′-fluoro-6-methyl-[3,3′-bipyridine]-5-yl}acetic acid] | 2
Cc1ncc(-c2ccc(F)c(F)c2F)c(N2CCC(C)(C)CC2)c1[C@H](OC(C)(C)C)C(=O)O [Example 162, (2S)-2-(tert-Butoxy)-2-[4-(4,4-dimethylpiperidin-1-yl)-2-methyl-5-(2,3,4-trifluorophenyl)pyridin-3-yl]acetic acid] | 7
Cc1nc(-c2cccnc2)c(-c2ccc(OCCc3ccc(F)cc3)cc2)c(N2CCC(C)(C)CC2)c1[C@H](OC(C)(C)C)C(=O)O [Example 41, (S)-2-(tert-Butoxy)-2-(4-(4,4-dimethylpiperidin-1-yl)-3-(4-(4-fluorophenethoxy)phenyl)-6-methyl-[2, 3′-bipyridin]-5-yl)acetic acid] | 4
Cc1ncc(-c2ccc(OCCC(C)C)cc2)c(N2CCC(C)(C)CC2)c1[C@H](OC(C)(C)C)C(=O)O [Example 361, (2S)-2-(tert-butoxy)-2-[4-(4,4-dimethylpiperidin-1-yl)-2-methyl-5-[4-(3-methylbutoxy)phenyl]pyridin-3-yl]acetic acid] | 4
CCCCNc1ccc(-c2cnc(C)c([C@H](OC(C)(C)C)C(=O)O)c2N2CCC(C)(C)CC2)cn1 [Example 437, (S)-2-tert-Butoxy-2-(6′-(butylamino)-4-(4,4-dimethylpiperidin-1-yl)-6-methyl-3, 3′-bipyridin-5-yl)acetic acid] | 9
CCCCCOc1ccc(-c2cnc(C)c([C@H](OC(C)(C)C)C(=O)O)c2N2CCC(C)(C)CC2)nc1 [Example 317, (2S)-2-(tert-butoxy)-2-[4′-(4,4-dimethylpiperidin-1-yl)-6′-methyl-5-(pentyloxy)-[2,3′-bipyridine]-5′-yl]acetic acid] | 1
